# Test results: patent US8815882B2, “Pyrazole aminopyrimidine derivatives as LRRK2 modulators” (Genentech, Inc., priority 2010, dated 2014)
# Molecular target: T1, LRRK2 (Homo sapiens, UniProt Q5S007, G2019S)
# T1 construct: purchased Invitrogen PV4882 (lot 567054A)
# Test: In Vitro LRRK2 Assay (LabChip 3000, fluorescently-labeled peptide substrate, ATP)
# Assay type: biochemical
# Conditions: Table 9; LRRK2 Ki (micromolar); read-out: LRRK2 Ki (KI)
# Outline: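 Read-out was LabChip capillary electrophoresis, resolving phospho- from non-phospho-peptide by fluorescence intensity. The kinase reaction combined enzyme, ATP, test compound and labeled peptide (4 μM working dilution) for 2 h in darkness before stop solution. Values were reported as Ki, from a tight-binding model with Et, S and Km, or as IC50 or percent inhibition.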
# T1 sequence (Q5S007 whole entry G2019S): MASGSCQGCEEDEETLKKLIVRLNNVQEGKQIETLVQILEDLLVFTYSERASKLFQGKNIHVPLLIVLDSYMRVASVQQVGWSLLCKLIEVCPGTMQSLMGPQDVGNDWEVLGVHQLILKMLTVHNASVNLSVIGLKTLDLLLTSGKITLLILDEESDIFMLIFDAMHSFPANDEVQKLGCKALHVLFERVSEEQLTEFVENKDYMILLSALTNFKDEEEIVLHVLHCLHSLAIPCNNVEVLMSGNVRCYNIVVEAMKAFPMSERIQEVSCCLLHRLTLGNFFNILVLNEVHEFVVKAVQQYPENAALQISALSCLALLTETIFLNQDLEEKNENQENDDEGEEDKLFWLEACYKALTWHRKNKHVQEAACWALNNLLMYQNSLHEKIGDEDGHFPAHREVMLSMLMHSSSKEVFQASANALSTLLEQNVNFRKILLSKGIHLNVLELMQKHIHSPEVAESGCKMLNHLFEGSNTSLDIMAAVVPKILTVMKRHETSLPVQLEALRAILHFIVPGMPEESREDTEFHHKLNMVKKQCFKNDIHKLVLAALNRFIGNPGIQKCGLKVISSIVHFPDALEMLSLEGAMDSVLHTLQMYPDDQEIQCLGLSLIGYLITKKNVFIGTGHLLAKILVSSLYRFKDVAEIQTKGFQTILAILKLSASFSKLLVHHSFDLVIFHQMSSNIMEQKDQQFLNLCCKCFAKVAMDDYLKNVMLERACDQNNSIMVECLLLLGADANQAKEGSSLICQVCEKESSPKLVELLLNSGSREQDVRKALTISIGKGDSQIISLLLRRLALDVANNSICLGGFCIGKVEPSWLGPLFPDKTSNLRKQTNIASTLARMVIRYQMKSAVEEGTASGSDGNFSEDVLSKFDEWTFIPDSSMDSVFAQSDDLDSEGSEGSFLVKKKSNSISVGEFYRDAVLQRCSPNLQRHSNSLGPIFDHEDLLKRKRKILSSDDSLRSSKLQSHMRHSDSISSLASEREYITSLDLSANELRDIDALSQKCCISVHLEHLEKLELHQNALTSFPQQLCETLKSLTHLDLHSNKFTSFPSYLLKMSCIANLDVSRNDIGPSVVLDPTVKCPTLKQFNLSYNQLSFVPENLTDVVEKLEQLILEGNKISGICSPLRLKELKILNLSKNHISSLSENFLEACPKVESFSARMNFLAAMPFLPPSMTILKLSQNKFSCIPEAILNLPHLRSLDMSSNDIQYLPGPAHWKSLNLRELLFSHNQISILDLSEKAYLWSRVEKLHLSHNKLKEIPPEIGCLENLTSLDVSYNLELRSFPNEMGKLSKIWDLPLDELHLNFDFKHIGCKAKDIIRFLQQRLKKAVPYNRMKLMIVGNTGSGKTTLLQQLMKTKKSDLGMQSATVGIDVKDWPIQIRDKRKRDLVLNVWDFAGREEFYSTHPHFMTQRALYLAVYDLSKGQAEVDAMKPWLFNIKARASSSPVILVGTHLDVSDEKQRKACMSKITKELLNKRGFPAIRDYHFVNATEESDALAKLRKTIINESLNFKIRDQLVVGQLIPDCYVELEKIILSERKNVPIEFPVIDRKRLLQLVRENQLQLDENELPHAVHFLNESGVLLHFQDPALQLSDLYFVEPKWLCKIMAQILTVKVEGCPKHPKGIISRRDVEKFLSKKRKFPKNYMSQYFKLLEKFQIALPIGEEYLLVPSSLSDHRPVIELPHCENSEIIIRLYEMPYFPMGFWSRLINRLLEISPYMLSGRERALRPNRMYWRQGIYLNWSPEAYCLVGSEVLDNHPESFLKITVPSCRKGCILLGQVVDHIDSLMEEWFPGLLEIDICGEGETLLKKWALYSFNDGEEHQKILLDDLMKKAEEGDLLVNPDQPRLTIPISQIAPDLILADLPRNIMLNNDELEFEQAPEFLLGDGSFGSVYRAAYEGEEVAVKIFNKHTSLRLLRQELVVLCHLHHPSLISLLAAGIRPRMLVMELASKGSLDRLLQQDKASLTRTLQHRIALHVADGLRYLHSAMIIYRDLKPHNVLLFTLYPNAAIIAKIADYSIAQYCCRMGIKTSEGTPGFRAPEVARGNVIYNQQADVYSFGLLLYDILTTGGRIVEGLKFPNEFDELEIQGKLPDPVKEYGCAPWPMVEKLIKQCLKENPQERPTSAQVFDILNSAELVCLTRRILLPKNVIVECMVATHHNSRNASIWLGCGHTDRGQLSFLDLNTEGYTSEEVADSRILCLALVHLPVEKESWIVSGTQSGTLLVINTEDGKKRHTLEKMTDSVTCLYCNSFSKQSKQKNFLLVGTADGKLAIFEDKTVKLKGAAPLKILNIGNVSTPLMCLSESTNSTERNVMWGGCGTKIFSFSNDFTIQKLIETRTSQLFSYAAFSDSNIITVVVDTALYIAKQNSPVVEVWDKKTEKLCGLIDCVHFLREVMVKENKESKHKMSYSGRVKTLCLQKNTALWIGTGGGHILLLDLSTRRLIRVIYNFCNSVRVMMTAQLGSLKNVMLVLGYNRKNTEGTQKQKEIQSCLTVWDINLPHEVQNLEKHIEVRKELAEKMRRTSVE
row,Ki,SMILES
1,1.3 nM,"CNc1nc(Nc2cnn(-c3ccccc3)c2C)ncc1C#N [Example 360, 2-(5-methyl-1-phenyl-1H-pyrazol-4-ylamino)-4-(methylamino) pyrimidine-5-carbonitrile]"
2,29 nM,"CNc1nc(Nc2cn(C)nc2C)ncc1C#N [Example 350, 2-(1,3-Dimethyl-1H-pyrazol-4-ylamino)-4-methylamino-pyrimidine-5-carbonitrile]"

# Same assay, conditions: Table 10; LRRK2 Ki (micromolar); read-out: LRRK2 Ki (KI)
row,SMILES,Ki
1,"CNc1nc(Nc2cnn(C(C)(C)C(=O)N(C)C)c2C)ncc1C(F)(F)F [Example 399, N,N,2-trimethyl-2-(5-methyl-4-(4-(methylamino)-5-(trifluoromethyl)pyrimidin-2-ylamino)-1H-pyrazol-1-yl)propanamide]",314 nM
2,"CNc1nc(Nc2cn(C(C)(C)C#N)nc2C)ncc1Cl [Example 417, 2-(4-(5-chloro-4-(methylamino)pyrimidin-2-ylamino)-3-methyl-1H-pyrazol-1-yl)-2-methylpropanenitrile]",2.1 nM

# The remaining lines, values ahead:
row,Ki,SMILES
1,0.3 nM,"CCNc1nc(Nc2cn(C(C)(C)C#N)nc2C)ncc1C(F)(F)F [Example 451, 2-[4-(4-Ethylamino-5-trifluoromethyl-pyrimidin-2-ylamino)-3-methyl-pyrazol-1-yl]-2-methyl-propionitrile]"
2,1 nM,"CNc1nc(Nc2cn(C(C)(C)C#N)nc2C2CC2)ncc1C(F)(F)F [Example 419, 2-(3-cyclopropyl-4-(4-(methylamino)-5-(trifluoromethyl)pyrimidin-2-ylamino)-1H-pyrazol-1-yl)-2-methylpropanenitrile]"

# Same assay, conditions: read-out: LRRK2 Ki (KI), Table 7
row,Ki,SMILES
1,89 nM,"COc1nc(Nc2cnn(C3CCN(C(=O)C4(C)CC4)CC3)c2C)ncc1Cl [Example 67, (4-(4-(5-chloro-4-methoxy-pyrimidin-2-ylamino)-5-methyl-1H-pyrazol-1-yl)piperidin-1-yl)(1-methylcyclo-propyl) methanone]"
2,0.8 nM,"CCNc1nc(Nc2cnn(C3CCN(CC4OCCO4)CC3)c2C)ncc1C(F)(F)F [Example 87, N^2-[1-(1-[1,3]Dioxolan-2-ylmethyl-piperidin-4-yl)-5-methyl-1H-pyrazol-4-yl]-N^4-ethyl-5-trifluoromethyl-pyrimidine-2,4-diamine]"
3,24 nM,"CNc1nc(Nc2cn(C3CCOCC3)nc2C)ncc1C(F)(F)F [Example 32, N^4-methyl-N^2-(3-methyl-1-(tetrahydro-2H-pyran-4-yl)-1H-pyrazol-4-yl)-5-(trifluoromethyl) pyrimidine-2,4-diamine]"

# Same assay, conditions: read-out: LRRK2 Ki (KI), Table 8
row,SMILES,Ki
1,"CCNc1nc(Nc2cnn(C3CCN(C)CC3)c2C)ncc1C(F)(F)F [Example 207, N4-ethyl-N2-(5-methyl-1-(1-methylpiperidin-4-yl)-1H-pyrazol-4-yl)-5-(trifluoromethyl) pyrimidine-2,4-diamine]",2.6 nM
2,"CNc1nc(Nc2cn(CC(C)(C)C#N)nc2Cl)ncc1C(F)(F)F [Example 326, 3-[3-Chloro-4-(4-methylamino-5-trifluoromethyl-pyrimidin-2-ylamino)-pyrazol-1-yl]-2,2-dimethyl-propionitrile]",8.2 nM
3,"COc1nc(Nc2cnn(C3CCN(CCF)CC3)c2C)ncc1Cl [Example 292, (5-Chloro-4-methoxy-pyrimidin-2-yl)-{1-[1-(2-fluoro-ethyl)-piperidin-4-yl]-5-methyl-1H-pyrazol-4-yl}-amine]",4.2 nM
4,"CNc1nc(Nc2cn(C3CCC(=O)NC3)nc2C)ncc1C(F)(F)F (stereo not drawn) [Example 153, 5-(3-methyl-4-(4-(methylamino)-5-(trifluoromethyl)pyrimidin-2-ylamino)-1H-pyrazol-1-yl)piperidin-2-one]",9.7 nM
5,"CNc1nc(Nc2cnn(C(F)F)c2C)ncc1C(F)(F)F [Example 106, N2-(1-(difluoromethyl)-5-methyl-1H-pyrazol-4-yl)-N4-methyl-5-(trifluoromethyl) pyrimidine-2,4-diamine]",1.9 nM
6,"CCNc1nc(Nc2cn(S(=O)(=O)CC)nc2C)ncc1C(F)(F)F [Example 243, N4-ethyl-N2-(1-(ethylsulfonyl)-3-methyl-1H-pyrazol-4-yl)-5-(trifluoromethyl) pyrimidine-2,4-diamine]",0.5 nM
7,"CNc1nc(Nc2cn(C3CCN(C(=O)C4CC4)CC3)nc2C)ncc1C(F)(F)F [Example 136, cyclopropyl(4-(3-methyl-4-(4-(methylamino)-5-(trifluoromethyl)pyrimidin-2-ylamino)-1H-pyrazol-1-yl)piperidin-1-yl)methanone]",9.3 nM
8,"CNc1nc(Nc2cnn(CC3(C)COC3)c2C)ncc1C(F)(F)F [Example 179, N4-methyl-N2-(5-methyl-1-((3-methyloxetan-3-yl)methyl)-1H-pyrazol-4-yl)-5-(trifluoromethyl) pyrimidine-2,4-diamine]",9 nM
9,"CCNc1nc(Nc2cnn(C3CCN(C4COC4)CC3F)c2Cl)ncc1C(F)(F)F (stereo not drawn) [Example 306, N2-[5-Chloro-1-(3-fluoro-1-oxetan-3-yl-piperidin-4-yl)-1H-pyrazol-4-yl]-N4-ethyl-5-trifluoromethyl-pyrimidine-2,4-diamine]",0.6 nM
10,"CCNc1nc(Nc2cnn(C)c2C)ncc1C(F)(F)F [Example 261, N2-(1,5-Dimethyl-1H-pyrazol-4-yl)-N4-ethyl-5-trifluoromethyl-pyrimidine-2,4-diamine]",1.3 nM
11,"CNc1nc(Nc2cn(C(C)c3ccccn3)nc2C)ncc1C(F)(F)F (stereo not drawn) [Example 224, N4-methyl-N2-(3-methyl-1-(1-(pyridin-2-yl)ethyl)-1H-pyrazol-4-yl)-5-(trifluoromethyl) pyrimidine-2,4-diamine]",2.4 nM
12,"CCNc1nc(Nc2cnn(CC)c2C)ncc1Br [Example 107, 5-bromo-N4-ethyl-N2-(1-ethyl-5-methyl-1H-pyrazol-4-yl)pyrimidine-2,4-diamine]",0.43 nM

# Continued, values first:
row,Ki,SMILES
1,11.7 nM,"CNc1nc(Nc2cn(C(C)(C)c3nnc(C)o3)nc2C)ncc1C(F)(F)F [Example 339, N4-methyl-N2-(3-methyl-1-(2-(5-methyl-1,3,4-oxadiazol-2-yl)propan-2-yl)-1H-pyrazol-4-yl)-5-(trifluoromethyl) pyrimidine-2,4-diamine]"
2,115 nM,"CNc1nc(Nc2cn(C(C)(C)c3ccn(C)n3)nc2C)ncc1C(F)(F)F [Example 345, N4-methyl-N2-(3-methyl-1-(2-(1-methyl-1H-pyrazol-3-yl)propan-2-yl)-1H-pyrazol-4-yl)-5-(trifluoromethyl) pyrimidine-2,4-diamine]"
3,9.3 nM,"CNc1nc(Nc2cn(Cc3cccnn3)nc2C)ncc1C(F)(F)F [Example 310, N4-Methyl-N2-(3-methyl-1-pyridazin-3-ylmethyl-1H-pyrazol-4-yl)-5-trifluoromethyl-pyrimidine-2,4-diamine]"
4,1.1 nM,"CNc1nc(Nc2cn(CCF)nc2C)ncc1C(F)(F)F [Example 130, N2-(1-(2-fluoroethyl)-3-methyl-1H-pyrazol-4-yl)-N4-methyl-5-(trifluoromethyl) pyrimidine-2,4-diamine]"
5,12.8 nM,"CNc1nc(Nc2cn([C@H](C)COC)nc2C)ncc1C(F)(F)F [Example 200, (R)-N2-(1-(1-methoxypropan-2-yl)-3-methyl-1H-pyrazol-4-yl)-N4-methyl-5-(trifluoromethyl) pyrimidine-2,4-diamine]"
6,1.2 nM,"CCNc1nc(Nc2cn(C(C)(C)c3nnc(C)o3)nc2C)ncc1C(F)(F)F [Example 336, N4-ethyl-N2-(3-methyl-1-(2-(5-methyl-1,3,4-oxadiazol-2-yl)propan-2-yl)-1H-pyrazol-4-yl)-5-(trifluorometliyl) pyrimidine-2,4-diamine]"
